Test results published in US8852647B2, “Combinations of pyrimethanil and silver compounds” (Janssen Pharmaceutica, NV, priority 2007, dated 2014).
≈ marks a conversion by molar mass, not a printed value. Read-outs that look alike come from different tables or passages of the source.

How the values were obtained:
[1] = test system: Streptomyces griseus (g+); test: Poison Plate Assay (Experiment 2), Streptomyces griseus; assay type: cell-based; conditions: 120 h, Table 3, pyrimethanil with Microsil™, ppm total active ingredient, Tryptose Agar, 27° C., evaluation after 5 days, read-out: MIC-values (minimum inhibitory concentration)
Text: [formula] wherein: • QA is the concentration of compound A in ppm, acting alone, which produced an end point (e.g. MIC), • Qa is the concentration of compound A in ppm, in the mixture, which produced an end point (e.g. MIC), • QB is the concentration of compound B in ppm, acting alone, which produced an end point (e.g. MIC), • Qb is the concentration of compound B in ppm, in the mixture, which produced an end point (e.g. MIC). When the Synergy Index is greater than 1.0, antagonism is indicated. When the SI is equal to 1.0, additivity is indicated.
Experiment 2: Poison Plate Assay • Name of the primary compound: —pyrimethanil (I) • Name of the silver salt: —Microsil™ from Avecom (Bloemendalestraat 138, 8730 Beernem, Belgium) • Microsil™ is a suspension of colloidal silver metal particles, produced by and clustered on probiotic bacteria. The diameter of the silver particles varies between 3 to 20 nm. The oxidation state of the silver in Microsil™ is 0 (Ag^0). • Microsil™ is produced as a suspension of finely dispersed colloidal Ag^0 particles, stabilized on a biological carrier molecule, in water. The probiotic carrier exists only as a non-viable and stabilizing biocomponent. • Stock solution: 1000 ppm in DMSO • Test combinations: […]

Escherichia coli = test: Poison Plate Assay (Experiment 1), Escherichia coli; conditions: for MIC-values (minimum inhibitory concentration): ppm total active ingredient, Tryptose Agar, 27° C., evaluation after one week
Rhodoturula rubra = test: Poison Plate Assay (Experiment 1), Rhodoturula rubra; conditions: for MIC-values (minimum inhibitory concentration): ppm total active ingredient, Glucose Agar, 22° C., evaluation after two weeks
Aspergillus versicolor = test: Poison Plate Assay (Experiment 1), Aspergillus versicolor; conditions: ppm total active ingredient, Glucose Agar, 22° C., evaluation after two weeks; for MIC: Aspergillus versicolor, 336 h
[2] = Table 2, pyrimethanil with silver perchlorate
[3] = Table 1, pyrimethanil with silver nitrate

Cc1cc(C)nc(Nc2ccccc2)n1 [pyrimethanil, 4,6-dimethyl-N-phenyl-2-pyrimidinamine]
MIC [1]: 66.7 µg/mL | MIC (Escherichia coli; Escherichia coli, 168 h, read-out: MIC-values (minimum inhibitory concentration)): 667 µg/mL (≈ 3350 µM) | MIC-values (minimum inhibitory concentration) (Escherichia coli; [2]): 666.67 ppm | MIC (Rhodoturula rubra; 336 h, read-out: MIC-values (minimum inhibitory concentration)): 281 µg/mL (≈ 1410 µM) | MIC-values (minimum inhibitory concentration) (Rhodoturula rubra; [2]): 281.25 ppm | MIC (Aspergillus versicolor; read-out: MIC-values (minimum inhibitory concentration), Table 1, pyrimethanil with silver nitrate): 667 µg/mL (≈ 3350 µM) | MIC (Aspergillus versicolor; read-out: MIC-values (minimum inhibitory concentration), Table 2, pyrimethanil with silver perchlorate): 375 µg/mL (≈ 1880 µM)

O=[N+]([O-])[O-].[Ag+] [silver nitrate]
MIC-values (minimum inhibitory concentration) (Escherichia coli; [3]): 66.67 ppm | MIC-values (minimum inhibitory concentration) (Rhodoturula rubra; [3]): 118.65 ppm | MIC-values (minimum inhibitory concentration) (Aspergillus versicolor; [3]): 118.65 ppm
